# Assay results from US11318157B2, “6-6 bicyclic aromatic ring substituted nucleoside analogues for use as PRMT5 inhibitors” (Janssen Pharmaceutica NV, priority 2015, dated 2022).
# Read-outs that look alike come from different tables or passages of the source.
# Columns and labels:
# PRMT5-MEP50 enzyme = target: T1, PRMT5-MEP50 enzyme (Homo sapiens, UniProt O14744); experiment: In vitro assay 1b: high throughput mass spectrometer assay of SAH formation, 1.25 nM enzyme, 120 min; type: biochemical; conditions: averaged values; PRMT5-MEP50, 1.25 nM enzyme, 120 min; read-out: pIC50 Assay 1b (converted)
# T1 construct: One virus expresses full length human PRMT5 with Flag-tag at N-terminus; Flag (N); purchased Charles River (Argenta); host or cells: insect cells (Sf9), baculovirus co-infection
# T1 sequence (O14744 whole entry): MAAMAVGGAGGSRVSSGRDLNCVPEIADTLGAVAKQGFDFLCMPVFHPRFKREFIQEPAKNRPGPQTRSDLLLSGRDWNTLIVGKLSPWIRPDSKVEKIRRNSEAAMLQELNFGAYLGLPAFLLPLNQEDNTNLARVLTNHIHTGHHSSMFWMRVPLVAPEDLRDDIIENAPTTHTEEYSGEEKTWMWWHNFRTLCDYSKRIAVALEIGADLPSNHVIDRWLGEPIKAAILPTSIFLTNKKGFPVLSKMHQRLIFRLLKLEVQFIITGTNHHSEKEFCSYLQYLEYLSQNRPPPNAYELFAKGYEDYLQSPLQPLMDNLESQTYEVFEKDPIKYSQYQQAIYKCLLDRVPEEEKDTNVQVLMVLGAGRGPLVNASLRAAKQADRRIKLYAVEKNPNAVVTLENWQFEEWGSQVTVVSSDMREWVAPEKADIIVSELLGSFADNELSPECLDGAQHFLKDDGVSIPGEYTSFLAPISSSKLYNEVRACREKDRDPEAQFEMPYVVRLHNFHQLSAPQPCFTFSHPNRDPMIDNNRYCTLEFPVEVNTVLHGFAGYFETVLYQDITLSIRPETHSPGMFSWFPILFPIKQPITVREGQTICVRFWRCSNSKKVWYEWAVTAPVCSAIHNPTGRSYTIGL
# T1 sequence (Q9BQA1 whole entry partner): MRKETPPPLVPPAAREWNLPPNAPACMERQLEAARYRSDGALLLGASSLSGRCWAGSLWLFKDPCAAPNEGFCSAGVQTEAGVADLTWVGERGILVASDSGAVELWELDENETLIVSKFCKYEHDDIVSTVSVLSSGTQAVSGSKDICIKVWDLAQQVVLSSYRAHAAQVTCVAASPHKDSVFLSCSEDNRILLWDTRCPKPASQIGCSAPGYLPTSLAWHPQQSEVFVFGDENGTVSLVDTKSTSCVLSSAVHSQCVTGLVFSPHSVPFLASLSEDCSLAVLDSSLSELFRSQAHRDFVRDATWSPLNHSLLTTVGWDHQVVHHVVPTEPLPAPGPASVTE
# Text: Experimental Procedures In Vitro Assay (Assay 1a and 1b)
# PRMT5-MEP50 enzyme was purchased from Charles River (Argenta). The enzyme complex was produced in insect cells (Sf9) infected simultaneously with two baculoviruses. One virus expresses full length human PRMT5 with Flag-tag at N-terminus, the second virus expresses full length MEP50 with His6-TEV cleavage at N-terminus. The protein was affinity purified using anti-Flag (M2) beads eluted with 3×FLAG peptide, followed by His-Select eluted with 0.5M imidazole. Eluted protein was then dialysed against tris-buffered saline (TBS) (pH 8.0) containing 20% glycerol and 3 mM dithiothreitol (DTT).
# Full-length untagged human recombinant histone H2A (residues 1-130, Genbank Accession #NM_021052 MW=14.1 kDa) expressed in E. coli was purchased from Reaction Biology Corporation, Cat #HMT-11-146. Reagents used for making reaction buffer or stopping reaction were purchased including Tris base (Sigma Cat #T-1503), NaCl (Sigma Cat #RGF-3270), MgCl2 (Sigma Cat #M0250), DTTI (Invitrogen Cat #15508-013) and Formic Acid (Riedel deHaen, Cat #33015)
# High Throughput Mass Spectrometer Assay
# PRMT5 catalyzes the sequential methylations of the terminal nitrogen atoms on the guanidine groups of arginine residues within proteins using co-substrate S-adenosyl-L-methionine (AdoMet, SAM), forming mono-methyl (MMA), symmetric-dimethyl arginine (sDMA) and S-adenosyl-L-homocysteine (AdoHcy, SAH). The enzyme activity was determined by following the product SAH formation using high throughput mass spectrometry (Agilent Rapidfire 300 System coupled to a Sciex 4000 series QTrap® triple-quad MS/MS). The reaction buffer was 20 mM Tris-HCl, pH 8.5, 50 mM NaCl, 5 mM MgCl2 and 1 mM DTT. The reaction activity was stopped using 1% formic acid (final concentration).
# The IC50 Studies were performed using eleven point dosing series made for each compound by serially diluted 1:2 in dimethyl sulfoxide (DMSO), with point 12 being a DMSO control. Compounds were first spotted to plates, and followed by addition of 2 μM SAM and 0.6 μM H2A (histone H2A) solution mixture. The same volume of enzyme solution was added to initiate the enzymatic reactions. The final concentrations of the reaction are at 1 μM SAM, 0.3 μM H2A and 10 nM enzyme (assay 1a) or 1.25 nM enzyme (assay 1b). The reaction was incubated at 30° C. for 60 minutes (min) when 10 nM enzyme was used and for 120 min when 1.25 nM enzyme was used. Subsequently, the reaction was quenched by addition of formic acid to a final concentration of 1%. The inhibitions of SAH formation in the presence of compounds were calculated as a percentage of the control relative to the uninhibited reaction as a function of inhibitor concentration. The data were fit as follows: Y=Bottom+(Top−Bottom)/(1+10^((log IC50−X)*h))
# where IC50 is the inhibitor concentration (same unit as X) at 50% inhibition and h is the Hill slope. Y is percent of inhibition, X is log of compound concentration. Bottom and Top are the plateaus in same units as Y.
# [1] = system: nuclear symmetric Arginine dimethylation in A549 cells; experiment: PD assay (assay 2): inhibition of nuclear symmetric Arginine dimethylation (SYM10 immunohistochemistry), 48 h; type: cell-based; conditions: Homo sapiens
# Procedure: Experimental Procedure PD Assay (Assay 2)
# A549 cells (ATCC, Cat #CCL-185) were cultured in Dulbecco's Modified Eagle's Medium (DMEM) (Sigma, Cat #D5796), supplemented with 10% Fetal Calf Serum (FCS) (HyClone™, Cat #SV30160.03), 100 mM Sodium Pyruvate (Sigma, Cat #S8636), 200 mM L-Glutamine (Sigma, Cat #G7513) and 50 mg/mL gentamycin (Gibco, Cat #15750-037).
# Reagents used for buffers were purchased: Dulbecco's phosphate buffered saline (DPBS) without Ca/Mg (Sigma, Cat #D8537), phosphate buffered saline (PBS) 10× (Roche, Cat #11 666 789 001), Formalin solution 10% (Sigma, HT50-1-128-4L), Methanol 100% (Sigma, Cat #32213-2.5L), Triton X-100 (Acros, Cat #215680010), Bovine Serum Albumin (BSA) (Sigma, Cat #A2153), Alexa fluor 488 goat anti-rabbit antibody (Life Technologies, Cat #A11034), HCS CellMask Deep Red Stain (Life Technologies, Cat #H32721), Hoechst Stain (Life Technologies, Cat #33258), Anti-dimethyl-Arginine, sym (SYM10) antibody (Millipore, 07-412).
# Immunohistochemistry Procedure
# Cells were plated at 400 cells/40 μL/well in 384 well black μplates clear bottom (Perkin Elmer) and overnight incubated at 37° C., 5% CO2. […] 80 nL of the respective dilution of the compounds was added using the Labcyte POD 810 (Labcyte) reaching a final DMSO concentration of 0.2% in cell culture. After an incubation period of 48 h at 37° C. and 5% CO2, cells were fixed in 10% formalin solution for 15 min at room temperature and 20 min in ice-cold methanol, after which they were washed 3× in DPBS. Subsequently, the cells were blocked for 1 h in blocking buffer (PBS+1% BSA and 0.5% Triton X-100) and incubated overnight at 4° C. with the SYM10 antibody diluted 1/2000 in blocking buffer. The cells were washed 3× with washing buffer (PBS+0.1% Triton X-100) and incubated with the Alexa fluor 488 goat anti-rabbit antibody diluted 1/200 in blocking buffer for 1 h at room temperature. Subsequently, they were washed 3× with washing buffer and incubated for 30 min at room temperature with PBS containing a 1/5000 dilution of Hoechst Stain and a 1/5000 dilution of the HCS CellMask Deep Red Stain. After a final wash with PBS, the plates were imaged using the 10×W lens of the Opera® system (Perkin Elmer Life Sciences) using following settings (values in nm):
# In the above equations, the following variable names are used: […]
# In the above equations, the following controls were used for normalization: […]
# Low control: minimum level of symmetrically dimethylated Arginines (cells treated with reference compound at 10 μM).
# High control: maximum level of symmetrically dimethylated Arginines (DMSO treated cells).
# IC50 and pIC50 (−log IC50) values were calculated using the appropriate software.
# The pIC50 values in the Table below are averaged values (Co. No. means compound number; n.d. means not determined).
# [2] = A549, averaged values, PD assay, A549 cells, symmetric Arginine dimethylation, read-out: pIC50 Assay 2 (converted)
IC50 (PRMT5-MEP50 enzyme) [nM],"IC50 [1, 2] [nM]",SMILES,"IC50 ([1]; A549, read-out: pIC50 Assay 2 (converted)) [nM]"
6.31,316,COc1ncnc2c1ccn2[C@@H]1C[C@H](CCc2ccc3ccc(NCC(F)F)nc3c2)[C@@H](O)[C@H]1O [Compound 182],
1.26,39.8,COc1ncnc2c1ccn2[C@@H]1C[C@H](CCc2ccc3ccc(NC4CC4)nc3c2)[C@@H](O)[C@H]1O [Compound 181],
0.126,3.16,Nc1nc2cc(CC[C@H]3O[C@@H](n4ccc5c(N)ncnc54)[C@H](O)[C@@H]3O)ccc2cc1Cl [Compound 158],
1.58,6.31,CNc1ncnc2c1ccn2[C@@H]1C[C@H](COc2ccc3cc(Br)c(N)nc3c2)[C@@H](O)[C@H]1O [Compound 237],
3.16,~2570,C=Cc1ncnc2c1ccn2[C@@H]1C[C@H](CCc2ccc3ccc(NCC4CC4)nc3c2)[C@@H](O)[C@H]1O [Compound 211],
1.58,39.8,CNc1ncnc2c1ccn2[C@@H]1C[C@H](CCc2ccc3cc(C(F)(F)F)c(N)nc3c2)[C@@H](O)[C@H]1O [Compound 201],
39.8,251,COc1ncnc2c1ccn2[C@@H]1O[C@H](CCc2ccc3cc(Cl)c(N)nc3c2)[C@@H](O)[C@H]1O [Compound 199],
0.316,< 1.17,Nc1ncnc2c1ccn2[C@@H]1C[C@H](CCc2ccc3ccc(NC4CCC4)nc3c2)[C@@H](O)[C@H]1O [Compound 156],
39.8,631,COc1ncnc2c1ccn2[C@@H]1C[C@H](CCc2ccc3ccc(NCC(F)(F)F)nc3c2)[C@@H](O)[C@H]1O [Compound 188],
2,63.1,CNc1ncnc2c1ccn2[C@@H]1C[C@H](CCc2ccc3ccc(NCC(F)F)nc3c2)[C@@H](O)[C@H]1O [Compound 184],
0.794,1.26,CNc1ncnc2c1ccn2[C@@H]1C[C@H](CCc2ccc3cc(Br)c(N)nc3c2)[C@@H](O)[C@H]1O [Compound 238],
1.58,15.8,CNc1ncnc2c1ccn2[C@@H]1C[C@H](CCc2ccc3cc(F)c(N)nc3c2)[C@@H](O)[C@H]1O [Compound 202],

# More lines, now with the values behind:
SMILES,IC50 (PRMT5-MEP50 enzyme) [nM],"IC50 [1, 2] [nM]","IC50 ([1]; A549, read-out: pIC50 Assay 2 (converted)) [nM]"
Nc1ncc2ccn([C@@H]3C[C@H](CCc4ccc5cc(Cl)c(N)nc5c4)[C@@H](O)[C@H]3O)c2n1 [Compound 243],0.794,< 1.17,
Nc1nc2cc(CC[C@H]3C[C@@H](n4ccc5c(N)ncnc54)[C@H](O)[C@@H]3O)ccc2cc1F [Compound 159],0.126,< 1.17,
CNc1ccc2ccc(OC[C@H]3C[C@@H](n4ccc5c(NC)ncnc54)[C@H](O)[C@@H]3O)cc2n1 [Compound 226],6.31,100,
Nc1nc2cc(CC[C@H]3C[C@@H](n4ccc5c(NC6CC6)ncnc54)[C@H](O)[C@@H]3O)ccc2cc1Cl [Compound 197],0.631,31.6,
Nc1ncnc2c1ccn2[C@@H]1C[C@H](COc2ccc3cccnc3c2)[C@@H](O)[C@H]1O [Compound 46],63.1,126,
Nc1nc2cc(CC[C@H]3C[C@@H](n4ccc5cnc(Cl)nc54)[C@H](O)[C@@H]3O)ccc2cc1Cl [Compound 241],2.51,< 1.17,
Nc1ncnc2c1ccn2[C@@H]1C[C@H](CCc2ccc3ccc(Nc4ccc(Cl)cc4)nc3c2)[C@@H](O)[C@H]1O [Compound 161],1.58,39.8,
CNc1ncnc2c1ccn2[C@@H]1C[C@H](CCc2ccc3ccc(NC4CC4)nc3c2)[C@@H](O)[C@H]1O [Compound 179],0.631,5.01,
CNc1ccc2ccc(CC[C@H]3C[C@@H](n4ccc5c(OC)ncnc54)[C@H](O)[C@@H]3O)cc2n1 [Compound 180],1.26,39.8,
CNc1ncnc2c1ccn2[C@@H]1C[C@H](CCc2ccc3ccc(NC(C)C)nc3c2)[C@@H](O)[C@H]1O [Compound 206],1.58,25.1,
CNc1nc2cc(CC[C@H]3C[C@@H](n4ccc5c(NC)ncnc54)[C@H](O)[C@@H]3O)ccc2cc1F [Compound 203],> 2510,6310,
COc1ncnc2c1ccn2[C@@H]1C[C@H](CCc2ccc3cc(F)c(N)nc3c2)[C@@H](O)[C@H]1O [Compound 204],3.98,63.1,
Nc1nc2cc(CC[C@H]3C[C@@H](n4ccc5cccnc54)[C@H](O)[C@@H]3O)ccc2cc1Cl [Compound 249],20,501,
CNc1ncnc2c1ccn2[C@@H]1C[C@H](CCc2ccc3ccc(NC4CCC4)nc3c2)[C@@H](O)[C@H]1O [Compound 183],0.501,6.31,
Nc1nc2cc(CC[C@H]3C[C@@H](n4ccc5c(N)ncnc54)[C@H](O)[C@@H]3O)ccc2cc1C(F)(F)F [Compound 154],0.316,2.51,
Nc1nc2cc(CC[C@H]3C[C@@H](n4ccc5nccnc54)[C@H](O)[C@@H]3O)ccc2cc1Cl [Compound 250],31.6,200,
Nc1ncnc2c1ccn2[C@@H]1O[C@H](COc2ccc3cccnc3c2)[C@@H](O)[C@H]1O [Compound 1],12.6,79.4,
COc1ncnc2c1ccn2[C@@H]1C[C@H](CCc2ccc3ccc(NCC4CC4)nc3c2)[C@@H](O)[C@H]1O [Compound 210],2.51,126,
Nc1ncnc2c1ccn2[C@@H]1C[C@H](CCc2ccc3ccc(NCC4CC4)nc3c2)[C@@H](O)[C@H]1O [Compound 74],0.126,,0.398
